Legend:
Format in all cases: in vivo, Balb/c mice
CD4+CD8+ thymocytes = assay: Flow cytometry assay for detection of CD4 and CD8 expression in thymocytes; settings: DNFB-induced DTH mice, topical application; control and model groups about 76%
Method: (§1) Male Balb/c mice, weighing 19-21 g were sensitized through topical application of 20 μl of 0.5% (v/v) DNFB in acetone onto the shaved abdomen on days 1 and 2. Challenge was then preformed on day 6 by applying DNFB (20 μl, 0.5%, v/v) on the left inner and outer ear surfaces of mice. DMY (at dosage of 1 mg/ear) and/or DEX (1.5625 μg/ml) dissolved in acetone was topically applied (20 μl) to the ears at 2nd, 24th, 48th, 72nd, hour after the challenge. The edema was calculated as the difference between the thickness of left and right ear at the 24th, 48th and 72nd h after challenge. […] The control 100 group was treated only with DNFB or solvent solution.
The animal model was conducted as mentioned in section 1.1 of Example 1 above, in which after the mice were sacrificed by cervical dislocation, the thymocytes were isolated and washed by PBS. The cells were stained by 20 μL CD4 with CD8 for 30 min avoiding from light, followed by 4% PFA to fix the cells, and flow cytometery was then conducted.

thymocytes = assay: Flow cytometry assay for detection of thymocyte apoptosis (Annexin V-FITC and PI); settings: DNFB-induced DTH mice, model group about 72%
Method: The animal model was conducted as mentioned in section 1.1 of Example 1 above. Thymocytes were washed by cold PBS and binding buffer, resuspended in binding buffer including Annexin V-FITC, and then incubated at room temperature for 10 minutes. After adding the binding buffer containing PI, the cells were incubated on ice for another 15 minutes. The data was analyzed by flow cytometry within one hour.

[1] = test system: ear edema of DTH mice induced by DNFB; assay: Delay-type hypersensitivity test (DTHT) in mice: ear edema; settings: topical, DMY 1 mg/ear and/or DEX 1.5625 μg/ml, 24th, 48th, 72nd h after challenge, vs Model Group
Method: as §1
FIGS. 1a and 1b show the effects of DEX, DMY and the combinational application of DMY and DEX (illustrated as the DMY+DEX group) on treatment of ear edema of DTH mice induced by DNFB. Edema as expressed as the increase in ear thickness (ΔT in micrometer±S.E.M.) in the DNFB experiments. Percentages of inhibition (% I) for each measurement were calculated from values for the DEX, DMY and DMY+ DEX groups with respect to those for the Model Group. Statistically significant differences with respect to the Model Group are expressed as *P<0.05 and **P<0.01 (Dunnett's t test).
The animal model was conducted as mentioned in section 1.1 of Example 1 above. […]

[2] = test system: mononuclear cell infiltrate in the ear; assay: Histological examination of ear inflammation; settings: DNFB-treated mice, ear histology
Method: as §1
(§2) The animal model was conducted as mentioned in section 1.1 of Example 1 above. […] Antigens were retrieved by steaming samples in DAKO target retrieval buffer (DAKO) for 20 minutes. After the nonspecific binding sites were blocked, the sections were incubated overnight at 4° C. with CD4 or CD8 antibodies (Phoenix Pharmaceuticals).
(§3) Sections were stained with 3,3′-diaminobenzidine substrate and counterstained with Meyer hematoxylin and eosin.

[3] = test system: CD4+ and CD8+ cells in the ears; assay: Immunohistochemical staining of CD4 and CD8 in ear sections; settings: immunohistochemical analysis; in comparison with the Model Group
Method: as §1, §2, §3

thymic architecture = assay: Histological examination of thymus; settings: compared with DEX-treated animals
Method: as §1

[4] = test system: signal-joint TRECs in thymocytes; assay: Quantification of signal-joint TRECs; settings: compared with the DEX-treated animals
Method: as §1
DNA was isolated from purified thymic T cells using DNA purification kit. PCR was performed using mδRec- and ψJα-specific primers and an mδRec-ψJα fluorescent probe as described previously. The standard curves for murine TRECs were generated using a mδRec-ψJα TREC PCR product cloned into a pc DNA3.1 plasmid from Prof. Gregory D. Sempowski (Duke Human Vaccine Institute, Duke University Medical Center, Durham, N.C., USA.). The assay was performed on slides according to previous study.

Row | Compound | CD4+CD8+ T cell population in thymus (CD4+CD8+ thymocytes) | ratio of thymocyte apoptosis (thymocytes) | effect on ear edema (increase in ear thickness, percentages of inhibition) [1] | number of inflammatory cells in the ear [2] | accounts of CD4+ and CD8+ cells in the treated ears [3] | thymic architecture (corticomedullary junctions) (thymic architecture) | levels of signal-joint TRECs in thymocytes [4]
1 | C[C@@H]1C[C@H]2[C@@H]3CCC4=CC(=O)C=C[C@]4(C)[C@@]3(F)[C@@H](O)C[C@]2(C)[C@@]1(O)C(=O)CO [DEX, dexamethasone] | 54.7% | 77.9% |  |  |  |  | 
2 | O=C1c2c(O)cc(O)cc2O[C@H](c2cc(O)c(O)c(O)c2)[C@H]1O [DMY, dihydromyricetin] |  |  | could inhibit ear edema | could be significantly reduced | shown to reduce the accounts of CD4+ and CD8+ cells | significantly improve the thymic architecture | could increase the levels of signal-joint TRECs
